# Columns and labels:
# Experiment in all cases: Example B2 herbicidal action, post-emergence, pots in glasshouse, damage score 0-10
# Type in all cases: in vivo
# Conditions in all cases: application post-emergence, rate 1000 g/ha, evaluated after 13 days
# Echinochloa crus-galli = tested on: Echinochloa crus-galli
# How it was run: (§1)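 Evaluation took place 13 days post-spray. Treatment used an acetone/water (50:50), 0.5% Tween 20 formulation applied to 8-day-old potted plants, held at 24/16 °C with 14 h light, 65% humidity and twice-daily watering.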
# Setaria faberi = tested on: Setaria faberi
# How it was run: as §1
# Amaranthus retroflexus = tested on: Amaranthus retroflexus
# How it was run: as §1
# Solanum nigrum = tested on: Solanum nigrum
# How it was run: as §1
# Ipomea hederaceae = tested on: Ipomea hederaceae
# How it was run: as §1
SMILES,ECHCG damage score (10=total damage to plant; 0=no damage to plant) (Echinochloa crus-galli),SETFA damage score (10=total damage to plant; 0=no damage to plant) (Setaria faberi),AMARE damage score (10=total damage to plant; 0=no damage to plant) (Amaranthus retroflexus),SOLNI damage score (10=total damage to plant; 0=no damage to plant) (Solanum nigrum),IPOHE damage score (10=total damage to plant; 0=no damage to plant) (Ipomea hederaceae)
O=S1(=O)C(c2c(Cl)ccc(Cl)c2Cl)=C(O)c2nccnc2N1CC(F)F [Compound D17],9,9,10,10,10
CCN1c2nccnc2C(OC(=O)C(C)(C)C)=C(c2cccc(Cl)c2Cl)S1(=O)=O [Compound C98],0,0,0,3,0
"Cc1ccc(C2=C(OC(=O)C(C)C)c3nccnc3N(CC(F)F)S2(=O)=O)c(Cl)c1 [Compound C136, isobutyric acid 3-(2-chloro-4-methyl-phenyl)-1-(2,2-difluoro-ethyl)-2,2-dioxo-1,2-dihydro-2-λ-6-thia-1,5,8-triaza-naphthalen-4-yl ester]",0,2,3,8,7
CCN1c2nccnc2C(O)=C(c2c(C(F)(F)F)cccc2C(F)(F)F)S1(=O)=O [Compound D43],3,4,7,8,8
CC#CCN1c2nccnc2C(O)=C(c2c(Cl)ccc(Cl)c2C(F)(F)F)S1(=O)=O [Compound D48],0,0,3,8,7
CC(C)C(=O)OC1=C(c2ccccc2I)S(=O)(=O)N(CC(F)F)c2nccnc21 [Compound C117],8,7,10,10,9
CCSC(=O)OC1=C(c2c(C(F)(F)F)ccc(Cl)c2Cl)S(=O)(=O)N(CC(F)F)c2nccnc21 [Compound C135],7,10,8,10,8
"CC(C)(C)C(=O)OC1=C(c2cc(C(F)(F)F)ccc2Cl)S(=O)(=O)N(CC(F)F)c2nccnc21 [Compound C34, 2,2-dimethyl-propionic acid 3-(2-chloro-5-trifluoromethyl-phenyl)-1-(2,2-difluoro-ethyl)-2,2-dioxo-1,2-dihydro-2-λ-6-thia-1,5,8-triaza-naphthalen-4-yl ester]",7,2,7,9,10
CC(C)C(=O)OC1=C(c2ccccc2C(F)(F)F)S(=O)(=O)N(CC(F)F)c2nccnc21 [Compound C61],9,10,10,10,10
CCN1c2nccnc2C(OC(=O)C(C)C)=C(c2cc(Cl)ccc2C(F)(F)F)S1(=O)=O [Compound C110],5,4,9,8,8
CCOC(=O)OC1=C(c2cc(Cl)ccc2C(F)(F)F)S(=O)(=O)N(CC(F)F)c2nccnc21 [Compound C120],8,9,9,9,10
O=S1(=O)C(c2c(F)cccc2C(F)(F)F)=C(O)c2nccnc2N1CC(F)F [Compound D39],9,9,10,9,10

# Reference: patent US8133849B2, “Herbicidal compounds” (Syngenta Limited, priority 2007, dated 2012)
